Source: patent US20260000692A1, “Substituted N-(Pyridin-2-yl)Acetamide Derivatives as CDK12/13 Inhibitors” (Aurigene Oncology Limited, priority 2022, published 2026)

Biological target: CDK12 (Homo sapiens, UniProt Q9NYV4)
Test: Biochemical assay for CDK12 (LANCE TR-FRET, IC50 determination)
Conditions: for IC50: CDK12, IC50 class, read-out: IC50 μM (in range); for inhibition at 10 µM: read-out: CDK12 % Inhibition @ 10 μM
How it was run: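 30 nM CDK12 phosphorylated 100 nM ULight-4E-BP1 (Thr37/Thr46) peptide at 100 µM ATP, as printed, in HEPES pH 7.5 buffer with MgCl2 and DTT. Compound and enzyme were preincubated 60 min, then reacted 60 min at room temperature before stopping with EDTA and Eu anti-phospho antibody. TR-FRET 665/615 ratio gave sigmoidal IC50 fits.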

Chain of CDK12 (Q9NYV4 whole entry): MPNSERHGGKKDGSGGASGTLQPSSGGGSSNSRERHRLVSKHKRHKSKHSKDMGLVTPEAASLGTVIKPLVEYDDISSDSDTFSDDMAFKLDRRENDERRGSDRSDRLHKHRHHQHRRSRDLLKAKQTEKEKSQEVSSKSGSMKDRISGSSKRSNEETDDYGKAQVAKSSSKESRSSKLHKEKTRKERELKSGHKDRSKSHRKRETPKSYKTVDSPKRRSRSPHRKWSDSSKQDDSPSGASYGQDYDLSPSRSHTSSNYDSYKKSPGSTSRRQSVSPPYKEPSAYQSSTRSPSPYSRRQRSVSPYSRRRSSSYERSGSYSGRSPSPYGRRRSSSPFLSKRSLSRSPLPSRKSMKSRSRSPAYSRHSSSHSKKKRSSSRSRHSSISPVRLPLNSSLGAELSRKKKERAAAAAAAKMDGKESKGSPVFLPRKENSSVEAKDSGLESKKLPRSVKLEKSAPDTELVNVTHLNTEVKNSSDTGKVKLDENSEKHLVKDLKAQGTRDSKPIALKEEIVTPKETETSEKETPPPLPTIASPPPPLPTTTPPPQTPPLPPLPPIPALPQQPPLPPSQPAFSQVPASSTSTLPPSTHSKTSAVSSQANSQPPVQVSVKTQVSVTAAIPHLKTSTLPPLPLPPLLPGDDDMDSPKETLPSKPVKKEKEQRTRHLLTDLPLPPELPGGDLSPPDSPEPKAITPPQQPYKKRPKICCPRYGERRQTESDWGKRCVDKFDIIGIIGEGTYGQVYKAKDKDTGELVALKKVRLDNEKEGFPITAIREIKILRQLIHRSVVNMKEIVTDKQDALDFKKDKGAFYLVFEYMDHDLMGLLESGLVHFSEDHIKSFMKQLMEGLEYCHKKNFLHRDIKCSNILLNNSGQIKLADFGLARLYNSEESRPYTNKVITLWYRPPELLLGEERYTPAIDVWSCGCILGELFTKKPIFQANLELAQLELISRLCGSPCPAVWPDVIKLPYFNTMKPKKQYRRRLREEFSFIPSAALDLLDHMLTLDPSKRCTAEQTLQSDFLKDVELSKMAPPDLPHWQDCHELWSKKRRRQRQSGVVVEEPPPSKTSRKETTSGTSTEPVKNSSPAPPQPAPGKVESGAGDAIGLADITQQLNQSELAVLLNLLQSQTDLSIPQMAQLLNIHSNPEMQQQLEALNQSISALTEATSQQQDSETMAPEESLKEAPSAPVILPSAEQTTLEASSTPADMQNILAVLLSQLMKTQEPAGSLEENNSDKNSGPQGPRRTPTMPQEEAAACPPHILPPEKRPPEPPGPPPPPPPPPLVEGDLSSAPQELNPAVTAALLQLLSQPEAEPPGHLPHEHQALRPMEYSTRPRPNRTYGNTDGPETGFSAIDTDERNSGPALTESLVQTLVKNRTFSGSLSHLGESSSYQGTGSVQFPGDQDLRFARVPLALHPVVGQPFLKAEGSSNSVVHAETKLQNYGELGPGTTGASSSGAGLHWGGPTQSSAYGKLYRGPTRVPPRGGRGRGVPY
Chain of CDK12 (O75909 whole entry partner): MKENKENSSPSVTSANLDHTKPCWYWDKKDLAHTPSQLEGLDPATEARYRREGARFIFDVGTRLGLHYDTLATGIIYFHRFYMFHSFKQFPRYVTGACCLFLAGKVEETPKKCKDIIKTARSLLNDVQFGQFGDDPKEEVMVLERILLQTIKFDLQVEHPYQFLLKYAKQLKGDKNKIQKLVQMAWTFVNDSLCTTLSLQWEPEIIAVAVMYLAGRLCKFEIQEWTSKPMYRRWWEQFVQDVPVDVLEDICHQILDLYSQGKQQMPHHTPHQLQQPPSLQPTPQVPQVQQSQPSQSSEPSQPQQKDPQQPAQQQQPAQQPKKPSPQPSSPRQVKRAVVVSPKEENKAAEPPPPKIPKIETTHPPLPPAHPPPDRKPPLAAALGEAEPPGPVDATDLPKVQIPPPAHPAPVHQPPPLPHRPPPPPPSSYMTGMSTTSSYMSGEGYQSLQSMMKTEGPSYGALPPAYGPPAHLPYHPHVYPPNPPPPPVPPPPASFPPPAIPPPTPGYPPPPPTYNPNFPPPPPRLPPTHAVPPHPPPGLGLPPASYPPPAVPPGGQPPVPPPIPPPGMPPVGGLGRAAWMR

SMILES	IC50	inhibition at 10 µM (compound at 10 μM)	CDK12 % Inhibition @ 10 μM (compound at 10 μM, 10 µM)
COc1cc(NC(=O)Cc2ccc(-c3cc(N4CC(OC)C4)cc(C#N)n3)nc2)ncc1Cl [Compound 193, N-(5-chloro-4-methoxypyridin-2-yl)-2-(6′-cyano-4′-(3-methoxyazetidin-1-yl)-[2,2′-bipyridin]-5-yl)acetamide]	> 0.1 µM	68%	–
COc1cc(NC(=O)Cc2ccc(-c3cc(N4CCC(C)(O)C4)cc(C#N)n3)nc2)ncc1Cl (centres unmarked) [Compound 194, N-(5-chloro-4-methoxypyridin-2-yl)-2-(6′-cyano-4′-(3-hydroxy-3-methylpyrrolidin-1-yl)-[2,2′-bipyridin]-5-yl)acetamide]	> 0.1 µM	94%	–
COc1cc(NC(=O)Cc2ccc(-c3cc(N4C[C@H]5CC[C@@H](C4)O5)cc(C#N)n3)nc2)ncc1Cl [Compound 195, 2-(4′-((1R,5S)-8-oxa-3-azabicyclo[3.2.1]octan-3-yl)-6′-cyano-[2,2′-bipyridin]-5-yl)-N-(5-chloro-4-methoxypyridin-2-yl)acetamide]	0.01 to 0.1 µM	84%	–
COc1cc(NC(=O)Cc2ccc(-c3cc(O[C@H]4CCOC4)cc(C#N)n3)nc2)ncc1Cl [Compound 196, (S)-N-(5-chloro-4-methoxypyridin-2-yl)-2-(6′-cyano-4′-((tetrahydrofuran-3-yl)oxy)-[2,2′-bipyridin]-5-yl)acetamide]	0.01 to 0.1 µM	89%	–
COc1cc(NC(=O)Cc2ccc(-c3cc(O[C@H]4CCOC4)cc(C#N)n3)nc2)ncc1Cl [Compound 197, (S)-N-(5-chloro-4-methoxypyridin-2-yl)-2-(6′-cyano-4′-((tetrahydrofuran-3-yl)oxy)-[2,2′-bipyridin]-5-yl)acetamide]	0.01 to 0.1 µM	–	87%
COc1cc(NC(=O)Cc2ccc(-c3cc(OC4CCN(C)CC4F)cc(C#N)n3)nc2)ncc1Cl (centres unmarked) [Compound 198, N-(5-chloro-4-methoxypyridin-2-yl)-2-(6′-cyano-4′-((3-fluoro-1-methylpiperidin-4-yl)oxy)-[2,2′-bipyridin]-5-yl)acetamide]	0.01 to 0.1 µM	100%	–
COc1cc(NC(=O)Cc2ccc(-c3cc(OC4CCCN(C)C4)cc(C#N)n3)nc2)ncc1Cl (centres unmarked) [Compound 199, N-(5-chloro-4-methoxypyridin-2-yl)-2-(6′-cyano-4′-((1-methylpiperidin-3-yl)oxy)-[2,2′-bipyridin]-5-yl)acetamide]	< 0.01 µM	88%	–
